Laboratory results published in patent publication US20060281813A1, “Methods of treating hyperproliferative cell disorders” (priority 2003, published 2006).

Experiments:
lung cancer [1] = assay: Example 7: lung cancer patients with disease progression on IRESSA alone; assay type: in vivo, human; details: added to IRESSA, oral 100 mg/square meter, optionally calcitriol 0.1-1 mcg per day
Xenopus laevis = Xenopus laevis system; cited from earlier work
lung cancer [2] = assay: Example 6: patients with lung cancer; assay type: in vivo, human; details: oral 100 mg/square meter with oral IRESSA
[3] = system: F9 embryonal mouse teratocarcinoma cells; details: in F9 cells; cited from earlier work
[4] = molecular target: T1, RARg ligand binding domain (Homo sapiens, UniProt P13631); details: CV-1 cell transfectants, cited from earlier work
T1 construct: expressed in transfected cells; host or cells: CV-1 cells

[5] = system: non small cell lung cancer; assay: Example 2: patient with non small cell lung cancer; assay type: in vivo, human; details: 75 mg per day with IRESSA 250 mg per day for two months
Method: A patient suffering from non small cell lung cancer was treated with IRESSA® (250 mg per day) for two months. The disease progressed during the treatment and thae patient was continued on IRESSA® (250 mg per day) with daily dosage of 4-oxo-retinol (75 mg per day) for two months. The disease became stable and the patient continued taking IRESSA® (250 mg per day) for 4 more months without 4-oxo-retinol with a stale disease.

F9 cells = details: similar to all-trans RA; cited from earlier work
[6] = system: acute lymphoblastic leukemia; assay: Example 1: patient with relapsed acute lymphoblastic leukemia; assay type: in vivo, human
Method: A person was diagnosed with acute lymphoblastic leukemia. […] 15 received a chemotherapy induction regimen of eight cycles of Hyper-CVAD which consists of the following: Cyclophosphamide 300 mg/mn^2 intravenously (IV) over 3 hours every 12 hours for six doses on days 1 through 3, with mesna at the same total dose as cyclophosphamide but given bycontinuous infusion starting with cyclophosphamide and ending 6 hours after the last dose; vincristine 2 mg IV days 4 and 11; doxorubicin 50 mg/^2 IV day 4; and dexamethasone 40 mg daily on days 1 through 4 and 11 through 14.
In addition, high dose methotrexate-cytarabine (ara-c) was used as follows: MTX (methotrexate) 200 mg/m^2 IV over 2 hours followed by 800 mg/m^2 IV over 24 hours on day 1; citrovorum factor rescue starting 24 hours after completion of MTX infusion at 15 mg every 6 hours x 8, and increased to 50 mg every 6 hours if MTX levels were more 25 than 20 ,upmol/L at the end of the infuision, more than 1 μμmol/L 24 hours later, or more than 0.1 μμmol/L48 hours after the end of MTX infusion, until levels were lower than 0.1μμM; ara-C (cytarabine) […] over 2 hours every 12 hours ×4 on days 2 and 3; and methylprednisolone 50 mg IV twice daily on days 1 through 3.
About a year later, they relapsed with the presence of cancer cells in blood and bone marrow. Thereafter, they underwent a salvage chemotherapy regimen of FLAG (fludarabine, ara-c and G-CSF) with the following doses: fludarabine 30 mg/m^2lday for 5 days; ara-C (cytarabine) 2 g/m^2/day for 5 days (FLAG); and G-CSF (neupogen or granulocyte colony stimulating factor) 400 micrograms/m^2/day. […] They were then given the same salvage regimen plus a daily oral dose of 4-oxo-retinol at 150 mg per day for 28 days. […] This remission lasted for one month before relapse.
The same salvage regimen was repeated with oral administration of4-oxo-retinol (75 mg per day for 18 days) in addition to a daily dose of calcitriol (50 mcg per day concomitant with the administration of 4-oxo-retinol).

[7] = system: retinoid receptor subtype; details: competition with all-trans RA; cited from earlier work
[8] = system: breast cancer, prostate cancer or leukemia; assay: Example 4: patients with breast cancer, prostate cancer or leukemia; assay type: in vivo, human; details: oral 100 mg/square meter with oral IRESSA
[9] = system: advanced head and neck cancer; assay: Example 5: patients with advanced head and neck cancer; assay type: in vivo, human; details: oral 100 mg/square meter with oral IRESSA or intravenous C-225
Description: Current systemic chemotherapy regimens are unable to prolong survival of patients with advanced head and neck cancer.

RARγ = molecular target: T2, RARγ (Mus musculus, UniProt P18911); details: read-out: IC50, ability to displace all-trans RA; cited from earlier work
T2 sequence (P18911 1-458): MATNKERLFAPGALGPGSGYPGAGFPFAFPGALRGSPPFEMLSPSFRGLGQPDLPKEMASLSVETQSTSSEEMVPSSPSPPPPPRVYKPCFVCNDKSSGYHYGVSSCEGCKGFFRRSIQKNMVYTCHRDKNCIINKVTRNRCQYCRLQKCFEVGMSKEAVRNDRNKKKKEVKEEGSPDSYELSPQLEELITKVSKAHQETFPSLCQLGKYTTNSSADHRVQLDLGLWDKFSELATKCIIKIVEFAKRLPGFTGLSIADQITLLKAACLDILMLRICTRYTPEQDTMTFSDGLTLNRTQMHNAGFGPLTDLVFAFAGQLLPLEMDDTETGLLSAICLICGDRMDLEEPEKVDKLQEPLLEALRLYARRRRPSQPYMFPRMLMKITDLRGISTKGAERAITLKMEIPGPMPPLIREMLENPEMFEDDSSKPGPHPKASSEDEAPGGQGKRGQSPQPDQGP

ER+ or ER− tumor lines = details: all the ER+ or ER− tumor lines examined; cited from earlier work
monomeric mouse RARa = molecular target: T3, monomeric mouse RARa (Mus musculus, UniProt P11416); details: read-out: IC50, ability to displace all-trans RA; cited from earlier work
T3 sequence (P11416 1-462): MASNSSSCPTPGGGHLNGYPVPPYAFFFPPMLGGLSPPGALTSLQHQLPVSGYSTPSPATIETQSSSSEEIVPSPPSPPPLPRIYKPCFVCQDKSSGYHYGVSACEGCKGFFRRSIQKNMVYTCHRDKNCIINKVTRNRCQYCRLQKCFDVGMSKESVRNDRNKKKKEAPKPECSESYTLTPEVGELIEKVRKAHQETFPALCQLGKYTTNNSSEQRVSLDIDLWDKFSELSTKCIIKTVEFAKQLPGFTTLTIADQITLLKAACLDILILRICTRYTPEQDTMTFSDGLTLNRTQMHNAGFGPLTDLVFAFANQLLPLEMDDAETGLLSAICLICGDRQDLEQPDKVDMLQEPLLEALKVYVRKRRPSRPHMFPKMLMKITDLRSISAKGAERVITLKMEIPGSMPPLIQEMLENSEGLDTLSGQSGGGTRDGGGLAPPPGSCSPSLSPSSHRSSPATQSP

[10] = FLAG salvage regimen plus oral 150 mg per day for 28 days

T1 sequence (P04386 1-147 partner limits assumed, species assumed, one chain of several): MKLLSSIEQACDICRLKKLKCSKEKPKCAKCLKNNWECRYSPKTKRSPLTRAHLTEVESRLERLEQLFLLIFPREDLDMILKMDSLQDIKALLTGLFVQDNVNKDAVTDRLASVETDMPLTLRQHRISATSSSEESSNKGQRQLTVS

**Q.** With `CC(C=CC1=C(C)C(=O)CCC1(C)C)=CC=CC(C)=CCO` [4-oxo-retinol] as the compound, how does the tumor burden (lung cancer [1]) read?
**A.** reduced tumor burden

**Q.** What about the “ED50, teratogenicity” value (Xenopus laevis) of the same compound?
**A.** 300 to 400 nM

**Q.** What about the “tumor burden versus IRESSA alone” value (lung cancer [2]) of the same compound?
**A.** reduced tumor burden

**Q.** And the half-life [3]?
**A.** > 15 h

**Q.** What about the “activity on GAL4 chimeras by RAR ligand binding domain” value ([4]; chimera with ligand binding domain of RARg) of the same compound?
**A.** highest activity

**Q.** What about the “RARg activation compared with all-trans RA” value [4] of the same compound?
**A.** greater ability to induce RARg activation than all-trans RA

**Q.** What about the disease course [5] of the same compound?
**A.** stable

**Q.** What about the “differentiation of F9 cells” value (F9 cells) of the same compound?
**A.** induces differentiation

**Q.** What about the response ([6]; FLAG salvage regimen plus oral 75 mg per day for 18 days and calcitriol 50 mcg per day) of the same compound?
**A.** complete remission

**Q.** And the “duration of remission before relapse” value [6, 10]?
**A.** one

**Q.** And the lymph nodes [6, 10]?
**A.** shrinkage of the lumph nodes to normal size

**Q.** And the “response (blood and bone marrow)” value [6, 10]?
**A.** complete remission

**Q.** What about the “displacement of all-trans RA” value [7] of the same compound?
**A.** Neither compound efficiently displaced all-trans RA

**Q.** What about the “tumor burden versus IRESSA alone” value [8] of the same compound?
**A.** reduced tumor burden

**Q.** And the “survival rate versus IRESSA or C-225 alone” value [9]?
**A.** better survival rate

**Q.** And the IC50 (RARγ)?
**A.** 3200 nM

**Q.** What about the growth inhibition (ER+ or ER− tumor lines) of the same compound?
**A.** growth inhibitory

**Q.** What about the IC50 (monomeric mouse RARa) of the same compound?
**A.** 330 nM
